The record followed here is patent publication US12636284B2, “Compositions for use in the prevention and/or treatment of intellectual disability and neurodegenerative diseases in a subject with down syndrome” (UNIVERSITA' DEGLI STUDI DI ROMA “LA SAPIENZA”, priority 2021, dated 2026).

A short description of data set [1]: Glucose tolerance test (GTT) at end of treatment. It counts as in vivo, mouse. The note with it: Ts2Cje mice; sitagliptin 5 mM intranasal, 21 days; 6 h fasting, i.p. glucose 10%. As to the method:
Finally, animals were sacrificed using cervical dislocation.
Furthermore, mice were measured at the beginning and at the end of the treatment to evaluate the length in centimeters (cm). For calculating the body mass surface, the DuBois equation was used: body surface area (m^2)=0.007184×weight ([…])×height ([…]). The body mass index was calculated as the ratio between weight and BSA (gr/m^2). At the end of the treatment, the glucose tolerance test (GTT) was carried out on the four experimental groups. After a fasting period of 6 hours, the animals' basal blood glucose was assessed with a small blood sample from the tail (T0). Subsequently, the same animals were treated with a glucose solution (10%, intraperitoneal injection) and blood glucose was measured with a glucometer (lineD ORO, Bioseven) after 30-60-90-120 minutes.

Data set [2] relates to DYRK1A protein. The data set can be described thus: Western blot of DYRK1A protein levels in hippocampus. It counts as in vivo, mouse. The conditions noted are these: hippocampus of Ts2Cje mice, 21 days intranasal treatment. As to the method:
Finally, animals were sacrificed using cervical dislocation. […] For Western blots, 20 μg of proteins from the hippocampus of mice belonging to the four experimental groups were separated by 4-15% SDS-PAGE CriterionTM […] (Bio-rad, Hercules, CAUSE). […] Therefore, the gel, once the image has been acquired, represents the total of the loaded proteins (Total Load), which will then be used to normalize the specific proteins to be examined. After electrophoresis and gel imaging, proteins are transferred via the semi-dry TransBlot Turbo apparatus (Bio-Rad Laboratories) onto nitrocellulose membranes (Bio-Rad, Hercules, CA, USA). Nitrocellulose membranes are blocked with 3% bovine serum albumin (BSA) in a solution of Tween 20-TBS and incubated overnight at 4° C. using specific primary antibodies: p([…])-GSK3B (1:1000, Santa Cruz, #sc-135653), p(S9)-GSK3β (1:1000, Cell Signaling, #5558S), GSK3β (1:1000 Abcam, #93926) and DYRK1A (1:1000, Cell Signaling, #8765S), MAPK44/42 (1:1000, Cell Signaling, #9102), p[…])-MAPK44/42 (1 1000, Cell Signaling, #9101), Akt (1:2000, Bio-Rad, # vma00253K), p(S473) Akt (1:1000, Cell Signaling, #4060S). After three washes with a T-TBS buffer solution, membranes were incubated for 1 hour at room temperature with the secondary antibodies. […] Finally, the results obtained were analyzed using the ImageLab program (Bio-rad, Hercules, CA, USA).

Data set [3] relates to oxidative stress levels (3-NT, 4-HNE). The data set can be described thus: Slot blot of oxidative stress markers 3-NT and 4-HNE in hippocampus. It counts as in vivo, mouse. As to the method:
The samples (250 μl per well) were loaded into the wells of the slot-blot apparatus and transferred to a nitrocellulose membrane. The membrane was blocked for 2 h with a 3% solution of bovine serum albumin in T-TBS, and incubated with a primary anti-HNE polyclonal antibody (1:3000; HNE, NOVUS, #NB100-63093) or anti-3-NT (1:1000; Sigma Aldrich, #SAB52000009), for 2 hours at room temperature. The membrane was washed with T-TBS and incubated with alkaline phosphatase conjugated anti-rabbit or anti-mouse secondary antibody (1:5000, Sigma Aldrich) for 1 hour at room temperature. […] Finally, the results obtained were analyzed using the ImageLab program (Bio-rad, Hercules, CA, USA).

For data set [4], the system named is DYRK1A protein. The data set can be described thus: DYRK1A protein levels in primary hippocampal neurons isolated from Ts2Cje mice. It counts as cell-based, mouse. The conditions noted are these: 1, 5, 10 μM for 24 hours, vs untreated Ts2Cje. As to the method: For Western blots, 20 μg of proteins from the hippocampus of mice belonging to the four experimental groups were separated by 4-15% SDS-PAGE Criterion™ TGX (Tris-Glyicine eXtended) Stain-Free™ (Bio-rad, Hercules, CAUSE). This type of gel allows a rapid acquisition of the protein run in the ultraviolet (UV) by Chemidoc™ MP imaging systems (Bio-rad, Hercules, CA, USA). Therefore, the gel, once the image has been acquired, represents the total of the loaded proteins (Total Load), which will then be used to normalize the specific proteins to be examined. After electrophoresis and gel imaging, proteins are transferred via the semi-dry TransBlot Turbo apparatus (Bio-Rad Laboratories) onto nitrocellulose membranes (Bio-Rad, Hercules, CA, USA). Nitrocellulose membranes are blocked with 3% bovine serum albumin (BSA) in a solution of Tween 20-TBS and incubated overnight at 4° C. using specific primary antibodies: p(T216)-GSK3B (1:1000, Santa Cruz, #sc-135653), p(S9)-GSK3β (1:1000, Cell Signaling, #5558S), GSK3β (1:1000 Abcam, #93926) and DYRK1A (1:1000, Cell Signaling, #8765S), MAPK44/42 (1:1000, Cell Signaling, #9102), p(Thr202/Tyr204)-MAPK44/42 (1 1000, Cell Signaling, #9101), Akt (1:2000, Bio-Rad, # vma00253K), p(S473) Akt (1:1000, Cell Signaling, #4060S). After three washes with a T-TBS buffer solution, membranes were incubated for 1 hour at room temperature with the secondary antibodies. Secondary antibodies with peroxidase activity are anti-mouse or anti-rabbit (1:5000, Bio-rad, Hercules, CA, USA). Membranes were developed using Clarity Enhanced Chemiluminescence (ECL), a chemiluminescent substrate (Bio-rad, Hercules, CA, USA) and acquired with Chemidoc Mp (Bio-rad, Hercules, CA, USA). Finally, the results obtained were analyzed using the ImageLab program (Bio-rad, Hercules, CA, USA).
In order to isolate primary hippocampal neurons, hippocampi from Ts and euploid mice were mechanically dissociated in PBS (with Ca^2+ and Mg^2−) and centrifuged (3 minutes, 1100 rpm, 25° C.). […]

Turning to `N[C@@H](CC(=O)N1CCn2c(nnc2C(F)(F)F)C1)Cc1cc(F)c(F)cc1F` [sitagliptin, (R)-4-oxo-4-[3-(trifluoromethyl)-5,6-dihydro[1,2,4]triazole[4,3-a]pyrazin-7(8H)-yl]-1-(2,4,5-trifluorophenyl)butan-2-amine], the “changes in glucose metabolism indices (GTT)” value in data set [1] was “no phenotypic or morphometric changes or changes in glucose metabolism indices”. Further, the “expression levels of the DYRK1A protein” value in the data set with DYRK1A protein [2] is “significant reduction”. Also, in data set [3], the “oxidative stress levels (3-NT, 4-HNE)” value is given as “reduction”. In the data set with DYRK1A protein [4], the “levels of the DYRK1A protein in Ts2Cje neurons” value is recorded as “significant reduction”.
